Test results from US12018023B2 (NERVIANO MEDICAL SCIENCES S.R.L., priority 2018, dated 2024).
Where two headings read alike, the source gives them in different places.

Key:
[1] = target: T1, IDH1^R132H homodimer enzyme (Homo sapiens, UniProt O75874, R132H); experiment: NADPH depletion assay, IDH1 R132H; format: biochemical
T1 construct: purchased not specified
Procedure, shortened: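 IDH1 R132H enzyme (8 nM as diluted) in Tris-HCl pH 7.6 with 10 mM MgCl2, 0.001% Triton X-100 and 4 mM β-mercaptoethanol is preincubated 15 min at RT with compound. Substrate mix (12 uM NADPH, 3.4 mM α-ketoglutarate) is added for 60 min; remaining NAD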

[2] = target: T2, IDH1^R132C (Homo sapiens, UniProt O75874, R132C); experiment: NADPH depletion assay, IDH1 R132C; format: biochemical
T2 construct: purchased not specified
T2 sequence (O75874 whole entry R132C): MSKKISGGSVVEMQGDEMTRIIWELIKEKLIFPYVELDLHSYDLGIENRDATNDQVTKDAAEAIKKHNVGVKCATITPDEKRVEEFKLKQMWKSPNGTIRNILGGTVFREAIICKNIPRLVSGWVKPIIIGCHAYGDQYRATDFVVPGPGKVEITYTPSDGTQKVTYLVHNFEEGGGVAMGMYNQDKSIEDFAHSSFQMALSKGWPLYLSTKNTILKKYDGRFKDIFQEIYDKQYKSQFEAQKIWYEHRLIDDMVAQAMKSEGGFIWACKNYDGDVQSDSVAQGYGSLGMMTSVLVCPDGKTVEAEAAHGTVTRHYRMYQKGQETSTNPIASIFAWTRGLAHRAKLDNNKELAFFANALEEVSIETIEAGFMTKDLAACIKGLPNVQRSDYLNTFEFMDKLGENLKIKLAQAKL
Procedure, shortened: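 IDH1 R132C (2 nM) preincubated 15 min at RT with compound in Tris-HCl pH 7.6/MgCl2 buffer, then 60 min RT with NADPH and 0.14 mM alpha-ketoglutarate. Remaining NADPH read by diaphorase/resazurin fluorescence (Ex544/Em590).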

[3] = target: T3, IDH2^R172K (Homo sapiens, UniProt P48735, R172K); experiment: NADPH depletion assay, IDH2 R172K; format: biochemical
T3 construct: purchased not specified
T3 sequence (P48735 40-452 R172K): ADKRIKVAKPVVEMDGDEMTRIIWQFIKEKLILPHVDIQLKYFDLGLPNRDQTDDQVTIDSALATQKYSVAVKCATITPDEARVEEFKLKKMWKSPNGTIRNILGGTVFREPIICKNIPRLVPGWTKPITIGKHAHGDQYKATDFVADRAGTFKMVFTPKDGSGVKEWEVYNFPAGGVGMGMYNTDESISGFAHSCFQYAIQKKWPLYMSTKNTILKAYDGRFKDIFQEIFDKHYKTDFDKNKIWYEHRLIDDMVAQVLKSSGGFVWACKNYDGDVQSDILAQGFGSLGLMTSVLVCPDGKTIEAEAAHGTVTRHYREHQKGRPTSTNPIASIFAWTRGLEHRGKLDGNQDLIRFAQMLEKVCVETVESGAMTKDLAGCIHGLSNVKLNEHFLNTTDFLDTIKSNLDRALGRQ
Procedure, shortened: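 IDH2 R172K (16 nM) was preincubated 15 min at RT with compound (1:3 series from 1 mM in DMSO) in Tris pH 7.6/NaCl/MgCl2/Triton/β-mercaptoethanol. The reaction ran 60 min at RT with 0.55 mM alpha-ketoglutarate and NADPH (12 μM in the substrate mix). Remaining NADPH was read with diaphorase/resazurin fluorescence at Ex544/Em590.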

[4] = test system: HT-1080 (IDH1^R132C); experiment: Cellular 2-HG production assay, HT-1080; format: cell-based; settings: Homo sapiens, HT-1080, 72 h, read-out: HT1080 2-HG IC50
Experimental: (§1) Cell lines HT-1080 (commercially available) and U87-MG-IDH1^R132H (obtained in analoy to the procedure reported in J. Mol. Neurosci 2013, 50, 165-71) are maintained in E-MEM 10% FCS and incubated at 37° C. in a humidified 5% CO2 atmosphere. Stably transfected U87-MG cell lines are also supplemented with 500 μg/mL G418.
(§2) Cells are seeded into 96 well black flat bottom plates at a density of 500 cells/well in 100 μL complete medium. After 24 hr the medium is replaced with 200 uL of fresh medium and compounds (dissolved into DMSO) are administrated to the cells using D300E Digital Dispenser (Tecan).
(§3) After 72 hr of incubation 100 uL from each well are collected and used for 2HG (R(−)-2-hydroxyglutarate) quantification.
(§4) Levels of 2-HG in cell culture media are determined by LC-MS/MS. Cell supernatants (100 μL/well) are treated with 1 M aqueous trichloroacetic acid containing 130 μM of the internal standard 2-HG-d3 (20 μL/well) in a 96-well plate.
(§5) The plates are sealed, mildly vortexed for 60 minutes, centrifuged at 4,000 RPM for 15 minutes, placed in a refrigerated autosampler taking care not to shake them, and aliquots of the upper part of the samples are directly injected in the chromatographic system. Calibration standards are obtained by ten fold dilution of aqueous 2-HG stock solutions with blank cell culture medium and denatured exactly in the same way as described above for samples. Samples and standards are assayed for 2-HG by reversed phase chromatography on a C18 column eluted with aqueous 0.15% formic acid and briefly washed with 90% methanol at the end of the run. 2-HG is determined by negative ion electrospray ionization with the internal standard method on a triple quadrupole mass spectrometer monitoring the MRM transitions 147>129 (2-HG) and 150>132 (2-HG-d3). 2-HG inhibition was calculated by comparing treated versus control data using Assay Explore (Symyx) software, with IC50 determined using a sigmoidal fitting algorithm.

[5] = test system: U87MG_IDH1R132H; experiment: Cellular 2-HG production assay, U87-MG-IDH1 R132H; format: cell-based; settings: inhibition of 2HG production, 72 hr incubation, LC-MS/MS
Experimental: as §1, §2, §3, §4, §5

[6] = inhibition of 2HG production, 72 hr incubation, LC-MS/MS

T1 sequence (O75874 whole entry R132H): as the sequence (O75874 whole entry R132C) above, with C132H counted along it

Row | Compound | IC50 [1] [nM] | IC50 [2] [nM] | IC50 [3] [nM] | IC50 [4, 6] [nM] | IC50 [5] [nM] | IC50 [4] [nM]
1 | C[C@H](Nc1ncc2ccc(=O)n([C@@H](C)C(C)(C)C)c2n1)c1ccc(CN2CCCC(F)(F)C2)cc1 [cpd 69, 2-{[(1S)-1-{4-[(3,3-difluoropiperidin-1-yl)methyl]phenyl}ethyl]amino}-8-[(2S)-3,3-dimethylbutan-2-yl]pyrido [2,3-d]pyrimidin-7(8H)-one] | 36 | 22 | – | – | 78 | –
2 | C[C@H](Nc1ncc2ccc(=O)n(Cc3c(F)cccc3F)c2n1)c1ccc(C(=O)NC2CCC(F)(F)CC2)cc1 [cpd 75, 4-[(1S)-1-{[8-(2,6-difluorobenzyl)-7-oxo-pyrido[2,3-d]pyrimidin-2-yl]amino}ethyl]-N-(4,4-difluorocyclohexyl)benzamide] | 407 | 431 | – | – | 1190 | –
3 | C[C@H](Nc1ncc2ccc(=O)n(Cc3c(F)cccc3F)c2n1)c1ccc(C(=O)N2CCC(F)(F)CC2)cc1 [cpd 77, 8-(2,6-difluorobenzyl)-2-{[(1S)-1-{4-[(4,4-difluoropiperidin-1-yl)carbonyl]phenyl}ethyl]amino} pyrido[2,3-d]pyrimidin-7(8H)-one] | 207 | 209 | – | – | 3030 | –
4 | CC(Nc1ncc2ccc(=O)n(CC(C)(C)C)c2n1)c1ccc(C(=O)NC2CCC(F)(F)CC2)c(Cl)c1 (centres unmarked) [cpd 82, 2-chloro-N-(4,4-difluorocyclohexyl)-4-(1-{[8-(2,2-dimethylpropyl)-7-oxo-pyrido[2,3-d]pyrimidin-2-yl]amino}ethyl) benzamide] | 146 | 134 | – | – | 1320 | –
5 | Cc1ccccc1Cn1c(=O)ccc2cnc(N[C@@H](C)c3ccc(CN4CCC(F)(F)CC4)cc3)nc21 [cpd 112, 2-{[(1S)-1-{4-[(4,4-difluoropiperidin-1-yl)methyl]phenyl}ethyl]amino}-8-(2-methylbenzyl)pyrido[2,3-d]pyrimidin-7(8H)-one] | 190 | 178 | – | – | 1610 | –
6 | C[C@H](Nc1ncc2ccc(=O)n(CC(C)(C)CO)c2n1)c1ccc(-c2ccsc2)cc1 [cpd 136, 8-(3-hydroxy-2,2-dimethylpropyl)-2-({(1S)-1-[4-(thiophen-3-yl)phenyl]ethyl}amino)pyrido[2,3-d]pyrimidin-7 (8H)-one] | 122 | 54 | – | – | 2910 | –
7 | C=CC(=O)N1CCN(C(=O)c2ccc([C@H](C)Nc3ncc4ccc(=O)n(CC(C)(C)C)c4n3)cc2F)CC1 [cpd 142, 2-{[(1S)-1-{4-[(4-acryloylpiperazin-1-yl)carbonyl]-3-fluorophenyl}ethyl]amino}-8-(2,2-dimethylpropyl)pyrido [2,3-d]pyrimidin-7(8H)-one] | 176 | 214 | 552 | – | – | 75
8 | C/C=C/C(=O)N1CCN(Cc2ccc([C@H](C)Nc3ncc4ccc(=O)n(CC(C)(C)C)c4n3)cc2)CC1 [cpd 143, 2-({(1S)-1-[4-({4-[(2E)-but-2-enoyl]piperazin-1-yl}methyl)phenyl]ethyl}amino)-8-(2,2-dimethylpropyl) pyrido [2,3-d]pyrimidin-7(8H)-one] | 236 | 66 | – | 517 | – | –
9 | C#Cc1ccc(Cn2c(=O)ccc3cnc(N[C@@H](C)c4ccc(CN5CCN(C(=O)C=C)CC5)cc4)nc32)c(F)c1 [cpd 217, 2-{[(1S)-1-{4-[(4-acryloylpiperazin-1-yl)methyl]phenyl}ethyl]amino}-8-(4-ethynyl-2-fluorobenzyl)pyrido[2,3-d]pyrimidin-7(8H)-one] | – | 15 | – | 8.2 | – | –
10 | C=CC(=O)N1CC[C@H](Oc2ccc([C@H](C)Nc3ncc4ccc(=O)n(CC)c4n3)cc2)C1 [cpd 224] | – | 1700 | – | 1070 | – | –

The next lines start with results.

Row | IC50 [1] [nM] | IC50 [2] [nM] | IC50 [3] [nM] | IC50 [4, 6] [nM] | IC50 [5] [nM] | Compound | IC50 [4] [nM]
11 | 4 | 4 | 25 | 0.9 | – | C=CC(=O)N1CCN([C@@H](CC)c2ccc([C@H](C)Nc3cc4c(ccc(=O)n4CC)cn3)cc2)CC1 | –
12 | – | 4 | – | 2.3 | – | C=CC(=O)N1CCN(C(CC)c2ccc([C@H](C)Nc3ncc4ccc(=O)n(C)c4n3)cc2)CC1 (stereo partly drawn) [cpd 215, 2-{[(1S)-1-{4-[1-(4-acryloylpiperazin-1-yl)propyl]phenyl}ethyl]amino}-8-methylpyrido[2,3-d]pyrimidin-7(8H)-one] | –
13 | – | 1 | – | 1.1 | – | C=CC(=O)N1CCN(C(CC)c2ccc([C@H](C)Nc3ncc4ccc(=O)n(Cc5c(F)cccc5F)c4n3)cc2)CC1 (stereo partly drawn) [cpd 216, 2-{[(1S)-1-{4-[1-(4-acryloylpiperazin-1-yl)propyl]phenyl}ethyl]amino}-8-(2,6-difluorobenzyl)pyrido[2,3-d]pyrimidin-7(8H)-one] | –
14 | – | 13 | – | 2.1 | – | C=CC(=O)N1CCN(C(CC)c2ccc([C@H](C)Nc3ncc4ccc(=O)n(C5CC5)c4n3)cc2)CC1 (stereo partly drawn) [cpd 218, 2-{[(1S)-1-{4-[1-(4-acryloylpiperazin-1-yl)propyl]phenyl}ethyl]amino}-8-cyclopropylpyrido[2,3-d]pyrimidin-7(8H)-one] | –
15 | – | 68 | – | 142 | – | C=C(C)C(=O)N1CCN(C(CC)c2ccc([C@H](C)Nc3ncc4ccc(=O)n(C(C)C)c4n3)cc2)CC1 (stereo partly drawn) [cpd 221, 2-{[(1S)-1-(4-{1-[4-(2-methylacryloyl)piperazin-1-yl]propyl}phenyl)ethyl]amino}-8-(propan-2-yl)pyrido[2,3-d]pyrimidin-7(8H)-one] | –
16 | – | 147 | – | 168 | – | C/C=C/C(=O)N1CCN(C(CC)c2ccc([C@H](C)Nc3ncc4ccc(=O)n(C(C)C)c4n3)cc2)CC1 (stereo partly drawn) [cpd 222, 2-({(1S)-1-[4-(1-{4-[(2E)-but-2-enoyl]piperazin-1-yl}propyl)phenyl]ethyl}amino)-8-(propan-2-yl)pyrido[2,3-d]pyrimidin-7(8H)-one] | –
17 | 2 | 2 | 20 | 0.9 | – | C=CC(=O)N1CCN([C@@H](CC)c2ccc([C@H](C)Nc3cc4c(ccc(=O)n4C(C)C)cn3)cc2)CC1 [cpd 239, 7-{[(1S)-1-{4-[(1S)-1-(4-acryloylpiperazin-1-yl)propyl]phenyl}ethyl]amino}-1-(propan-2-yl)-1,6-naphthyridin-2(1H)-one] | –
18 | – | 10 | – | 4.5 | – | CC(C)n1c(=O)ccc2cnc(N[C@@H](C)c3ccc([C@H](CC4CC4)N4CCN(C(=O)CCCl)CC4)cc3)nc21 [cpd 242, 2-{[(1S)-1-(4-{(1S)-1-[4-(3-chloropropanoyl)piperazin-1-yl]-2-cyclopropylethyl}phenyl)ethyl]amino}-8-(propan-2-yl)pyrido[2,3-d]pyrimidin-7(8H)-one] | –
19 | – | 20 | – | 38 | – | CC[C@H](c1ccc([C@H](C)Nc2ncc3ccc(=O)n(C(C)C)c3n2)cc1)N1CCN(C(=O)CCO)CC1 [cpd 243] | –
20 | – | 2 | – | 2.3 | – | C=CC(=O)N1CCN([C@@H](CC2CC2)c2ccc([C@H](C)Nc3cc4c(ccc(=O)n4C(C)C)cn3)cc2)CC1 [cpd 251, 7-{[(1S)-1-{4-[(1S)-1-(4-acryloylpiperazin-1-yl)-2-cyclopropylethyl]phenyl}ethyl]amino}-1-(propan-2-yl)-1,6-naphthyridin-2(1H)-one] | –
